The target in one test is D(1A) dopamine receptor (Homo sapiens, UniProt P21728). As to the kind of experiment: Compound was tested for the Binding affinity against Human cloned Dopamine receptor D1 by Radio ligand ([3H]SCH-23390) binding assay.
For the next test, the target named is Histamine H1 receptor (Rattus norvegicus, UniProt P31390). As to the kind of experiment: Compound was tested for the Binding affinity against rat cortical H1 receptor by Radio ligand [3H]pyrilamine binding assay.
The target of test [1] is T1, Muscarinic acetylcholine receptor M2 (Rattus norvegicus, UniProt P10980).
T1 sequence (P10980 whole entry): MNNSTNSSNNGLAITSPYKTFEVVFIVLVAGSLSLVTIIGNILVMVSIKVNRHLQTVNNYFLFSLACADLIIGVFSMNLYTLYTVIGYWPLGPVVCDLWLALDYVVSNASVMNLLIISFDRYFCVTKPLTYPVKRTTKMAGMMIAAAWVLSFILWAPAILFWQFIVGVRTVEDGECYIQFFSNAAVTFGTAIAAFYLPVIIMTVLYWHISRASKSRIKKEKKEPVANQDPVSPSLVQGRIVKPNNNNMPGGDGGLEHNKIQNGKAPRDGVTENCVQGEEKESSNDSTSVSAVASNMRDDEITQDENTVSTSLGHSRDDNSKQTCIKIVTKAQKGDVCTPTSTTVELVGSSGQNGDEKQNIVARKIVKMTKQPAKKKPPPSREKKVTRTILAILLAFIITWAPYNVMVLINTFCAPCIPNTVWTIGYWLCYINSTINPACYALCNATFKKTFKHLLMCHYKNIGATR
Nature of the test: Compound was tested for the Binding affinity against rat heart Muscarinic acetylcholine receptor M2 by Radio ligand [3H]quinuclidinyl binding assay.

The next test concerns the target D(1B) dopamine receptor (Homo sapiens, UniProt P21918).
The target of test [2] is T2, Adrenergic receptor alpha-1 (Rattus norvegicus, UniProt P15823+P23944+P43140).
T2 sequence (P15823 whole entry): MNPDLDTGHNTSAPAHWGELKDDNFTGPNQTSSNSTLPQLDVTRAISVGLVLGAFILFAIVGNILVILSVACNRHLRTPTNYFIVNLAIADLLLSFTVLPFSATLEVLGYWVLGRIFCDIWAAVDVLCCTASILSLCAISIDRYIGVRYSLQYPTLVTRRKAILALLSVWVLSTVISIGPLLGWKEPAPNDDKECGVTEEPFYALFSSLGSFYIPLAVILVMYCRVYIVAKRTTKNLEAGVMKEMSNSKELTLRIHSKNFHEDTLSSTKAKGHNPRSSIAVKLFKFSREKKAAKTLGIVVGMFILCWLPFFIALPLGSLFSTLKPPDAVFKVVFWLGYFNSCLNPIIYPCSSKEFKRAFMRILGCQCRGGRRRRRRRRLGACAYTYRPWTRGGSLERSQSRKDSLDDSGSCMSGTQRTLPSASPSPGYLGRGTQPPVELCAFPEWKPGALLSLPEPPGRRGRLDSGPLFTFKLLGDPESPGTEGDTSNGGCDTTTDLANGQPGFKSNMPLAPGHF
T2 sequence (P23944 whole entry): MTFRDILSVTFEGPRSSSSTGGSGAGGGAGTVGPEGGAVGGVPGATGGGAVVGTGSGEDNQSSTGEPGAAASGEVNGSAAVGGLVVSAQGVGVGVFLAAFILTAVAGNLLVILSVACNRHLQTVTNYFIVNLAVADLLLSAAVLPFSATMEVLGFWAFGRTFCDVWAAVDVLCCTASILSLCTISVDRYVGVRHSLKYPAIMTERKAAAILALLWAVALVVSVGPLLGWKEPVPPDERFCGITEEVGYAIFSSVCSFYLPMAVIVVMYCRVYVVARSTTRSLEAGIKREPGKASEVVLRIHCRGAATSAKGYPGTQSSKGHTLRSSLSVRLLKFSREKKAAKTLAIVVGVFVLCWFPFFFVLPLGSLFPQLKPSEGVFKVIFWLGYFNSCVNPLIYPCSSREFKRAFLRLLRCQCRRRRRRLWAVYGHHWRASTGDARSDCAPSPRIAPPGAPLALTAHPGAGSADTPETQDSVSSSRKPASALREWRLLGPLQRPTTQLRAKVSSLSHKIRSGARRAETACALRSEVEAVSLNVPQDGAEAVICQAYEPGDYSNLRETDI
T2 sequence (P43140 whole entry): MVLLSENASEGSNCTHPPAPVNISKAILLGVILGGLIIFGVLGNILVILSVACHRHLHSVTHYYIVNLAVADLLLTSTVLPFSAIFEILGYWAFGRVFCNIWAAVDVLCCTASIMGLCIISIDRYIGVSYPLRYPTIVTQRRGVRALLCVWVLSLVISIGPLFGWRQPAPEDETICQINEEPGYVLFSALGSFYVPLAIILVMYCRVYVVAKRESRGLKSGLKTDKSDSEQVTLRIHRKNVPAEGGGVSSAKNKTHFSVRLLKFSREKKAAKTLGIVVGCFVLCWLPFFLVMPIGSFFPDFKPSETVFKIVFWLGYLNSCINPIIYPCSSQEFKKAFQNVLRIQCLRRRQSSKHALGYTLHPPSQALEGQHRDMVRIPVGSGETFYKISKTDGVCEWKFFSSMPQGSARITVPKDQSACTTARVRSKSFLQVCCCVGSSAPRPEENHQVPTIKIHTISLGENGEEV
Nature of the test: Compound was tested for the binding affinity against rat cortical Alpha-1 adrenergic receptor by radioligand [3H]prazosin binding assay. Type of test: protein assay.

The next test relates to Mus musculus. Nature of the test: Compound was tested for inhibition of Apomorphine induced climbing in Mice on subcutaneous administration. Type of test: functional. To be noted: sc.
The next test addresses T3, D(4) dopamine receptor (Homo sapiens, UniProt P21917).
T3 sequence (P21917 whole entry): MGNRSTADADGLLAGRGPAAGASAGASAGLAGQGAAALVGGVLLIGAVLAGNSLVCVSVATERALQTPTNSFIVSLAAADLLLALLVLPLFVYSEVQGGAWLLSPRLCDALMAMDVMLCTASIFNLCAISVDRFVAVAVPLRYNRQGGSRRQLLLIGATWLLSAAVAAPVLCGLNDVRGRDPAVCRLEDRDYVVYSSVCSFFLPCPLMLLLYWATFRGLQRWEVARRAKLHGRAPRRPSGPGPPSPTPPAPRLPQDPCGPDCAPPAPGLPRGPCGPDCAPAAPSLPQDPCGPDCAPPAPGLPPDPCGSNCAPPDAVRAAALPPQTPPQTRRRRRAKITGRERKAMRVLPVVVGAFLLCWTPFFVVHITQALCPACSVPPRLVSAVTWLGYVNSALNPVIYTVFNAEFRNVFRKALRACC
As to the kind of experiment: biochemical.

Sequence of D(1B) dopamine receptor (P21918 whole entry): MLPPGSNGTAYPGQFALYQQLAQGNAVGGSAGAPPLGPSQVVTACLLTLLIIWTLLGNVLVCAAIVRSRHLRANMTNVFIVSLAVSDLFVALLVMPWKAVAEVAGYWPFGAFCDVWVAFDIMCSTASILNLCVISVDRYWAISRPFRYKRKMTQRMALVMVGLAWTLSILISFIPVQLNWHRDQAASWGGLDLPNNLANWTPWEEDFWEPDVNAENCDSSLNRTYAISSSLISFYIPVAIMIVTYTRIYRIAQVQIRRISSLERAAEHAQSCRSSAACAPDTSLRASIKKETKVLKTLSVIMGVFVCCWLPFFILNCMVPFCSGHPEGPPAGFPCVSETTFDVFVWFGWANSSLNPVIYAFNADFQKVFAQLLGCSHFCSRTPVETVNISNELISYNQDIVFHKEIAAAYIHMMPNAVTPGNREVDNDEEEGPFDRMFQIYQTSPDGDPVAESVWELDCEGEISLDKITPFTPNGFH
Sequence of D(1A) dopamine receptor (P21728 whole entry): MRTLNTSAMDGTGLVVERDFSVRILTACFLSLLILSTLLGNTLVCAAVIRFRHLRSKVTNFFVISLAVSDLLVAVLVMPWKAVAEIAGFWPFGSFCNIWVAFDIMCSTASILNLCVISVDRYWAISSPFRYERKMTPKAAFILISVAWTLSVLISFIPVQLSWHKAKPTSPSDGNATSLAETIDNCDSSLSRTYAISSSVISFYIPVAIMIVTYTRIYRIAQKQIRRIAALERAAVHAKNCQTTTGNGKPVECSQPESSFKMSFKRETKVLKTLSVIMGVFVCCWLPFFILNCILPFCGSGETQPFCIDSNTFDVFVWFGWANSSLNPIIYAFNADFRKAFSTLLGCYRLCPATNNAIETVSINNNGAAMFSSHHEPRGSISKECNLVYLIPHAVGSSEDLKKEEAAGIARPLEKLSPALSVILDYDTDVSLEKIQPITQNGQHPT
Sequence of Histamine H1 receptor (P31390 whole entry): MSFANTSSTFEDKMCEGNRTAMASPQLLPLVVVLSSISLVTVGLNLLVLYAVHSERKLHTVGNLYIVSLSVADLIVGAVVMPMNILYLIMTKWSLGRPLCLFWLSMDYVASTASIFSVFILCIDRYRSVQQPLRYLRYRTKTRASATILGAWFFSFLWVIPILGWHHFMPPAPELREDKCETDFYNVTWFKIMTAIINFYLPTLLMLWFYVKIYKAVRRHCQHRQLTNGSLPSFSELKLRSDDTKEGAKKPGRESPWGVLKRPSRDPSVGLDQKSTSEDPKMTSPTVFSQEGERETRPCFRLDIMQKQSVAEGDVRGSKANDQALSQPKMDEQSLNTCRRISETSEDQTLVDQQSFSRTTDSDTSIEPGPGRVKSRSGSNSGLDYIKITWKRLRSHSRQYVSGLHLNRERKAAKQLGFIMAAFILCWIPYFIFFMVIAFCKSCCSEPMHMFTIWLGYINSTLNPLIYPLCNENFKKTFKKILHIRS

As for `COc1cc(NC(=O)C2CC2)c(Cl)cc1C(=O)N[C@H]1CCN(Cc2ccccc2)C1`, the Ki at D(1A) dopamine receptor is over 10 µM; at Histamine H1 receptor it was over 10 µM; in test [1] it was 7.3 µM; at D(1B) dopamine receptor it was over 10 µM; in test [2] it was 5.3 µM; on D(4) dopamine receptor, 0.0021 µM. The compound also had an ED50 with Mus musculus of 0.32 mg/kg.
